# In patent US20080138291A1, “Sulfonamide Derivatives Having Carbonic Anhydrase Inhibiting Activity and their Use as Therapeutic and Diagnostic Agents” (UNION LIFE SCIENCES LTD., priority 2005, published 2008):
# What was measured:
# [1] = system: HeLa cervical carcinoma cells; test: Binding of fluorescent sulfonamide to HeLa cells; details: hypoxic versus normoxic cells
# Description: (§2) Sulfonamide treatment of cells. The sulfonamides were dissolved in PBS with 20% DMSO at 100 mM concentration and diluted in a culture medium to a required final concentration just before their addition to cells. Immediately after beginning of the treatment with sulfonamides, the cells were transferred to hypoxia and incubated for 48 h. Parallel cultures were maintained for the same time period in normoxia.
# [2] = system: SiHa cervical carcinoma cells; test: Effect on extracellular pH of SiHa cells in hypoxia; type: cell-based; details: hypoxia 48 h, 1 mM
# MDCK-CA IX cells = test: Binding of fluorescent sulfonamide to MDCK-CA IX cells (fluorescence microscopy); type: cell-based, canine; details: CA IX-positive and mock-transfected MDCK cells, normoxia or hypoxia 48 h
# Source text: (§1) Sulfonamide treatment of cells. […] Images were acquired by Nikon Coolpix 990.
# hCA I = hCA I (Homo sapiens, UniProt P00915); test: CA inhibition, CO2 hydration method, isozyme I; type: biochemical; details: KI hCA I, Table 1, human cloned isozyme
# human red cells = test: Ex vivo penetration through red blood cell membranes
# [3] = system: HeLa cervical carcinoma cells; test: Effect on extracellular pH of HeLa cells in hypoxia; type: cell-based; details: hypoxia 48 h, 1 mM
# Description: Cell cultures. MDCK and HeLa cells as well as their transfected derivatives were grown in DMEM with 10% FCS (BioWhittaker, Verviers, Belgium) buffered with 22.4 mM bicarbonate and containing supplements as described before (Svastova, E.; et al.; Exp. Cell. Res. 2003, 290, 332-345) To maintain standard experimental conditions, the cells were always plated in 3 ml of culture medium at a density of 0.8−1×10^6 per 6 cm dish 24 h before the transfer to hypoxia (2% O2 and 5% CO2 balanced with N2) generated in a Napco 7000 incubator, where they were grown for additional 48 h (if not stated otherwise). Parallel normoxic dishes were incubated in air with 5% CO2.
# as §1
# Mean differences in the pH values determined in the treated versus control dishes are shown on the histogram with indicated standard deviations. The experiment was repeated three times using at least three parallel dishes for each sample.
# [4] = system: SiHa cervical carcinoma cells; test: Binding of fluorescent sulfonamide to SiHa cells; details: hypoxic versus normoxic cells
# Description: as §2
# Sequence of hCA I (P00915 whole entry): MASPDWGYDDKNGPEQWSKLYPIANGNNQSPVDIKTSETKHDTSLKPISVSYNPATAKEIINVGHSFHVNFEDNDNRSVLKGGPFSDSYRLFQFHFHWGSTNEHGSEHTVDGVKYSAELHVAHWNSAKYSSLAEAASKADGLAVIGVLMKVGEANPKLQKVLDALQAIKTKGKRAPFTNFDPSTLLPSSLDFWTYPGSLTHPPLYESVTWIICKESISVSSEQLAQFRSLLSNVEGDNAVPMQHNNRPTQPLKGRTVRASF
smiles,measurement,setting,value
"NS(=O)(=O)c1ccc(CCNC(=S)Nc2ccc(-c3c4ccc(=O)cc-4oc4cc(O)ccc34)c(C(=O)O)c2)cc1 [5c, (4-Sulfamoylphenylethyl)thioureido fluorescein]",binding to HeLa cells,[1],binds to hypoxic HeLa and SiHa cells
same,acidosis (pHe) of hypoxic SiHa cells,[2],reduced
same,fluorescence signal (binding to cells),MDCK-CA IX cells,detected only in the hypoxic MDCK-CA IX cells
same,Ki,hCA I,1.3 µM
same,"[sulfonamide] in red blood cells, t = 30 min, HPLC","human red cells; 30 min, 3 mM sulfonamide in 5 mM Tris buffer pH 7.4, HPLC method",0.4 µM
same,"[sulfonamide] in red blood cells, t = 30 min, ES","human red cells; 30 min, 3 mM sulfonamide in 5 mM Tris buffer pH 7.4, electronic spectroscopy",0.9 µM
same,"[sulfonamide] in red blood cells, t = 60 min, HPLC","human red cells; 60 min, 3 mM sulfonamide in 5 mM Tris buffer pH 7.4, HPLC method",0.6 µM
same,"[sulfonamide] in red blood cells, t = 60 min, ES","human red cells; 60 min, 3 mM sulfonamide in 5 mM Tris buffer pH 7.4, electronic spectroscopy",1.2 µM
same,"[sulfonamide] in red blood cells, t = 48 h, HPLC","human red cells; 48 h, 3 mM sulfonamide in 5 mM Tris buffer pH 7.4, HPLC method",10.4 µM
same,"[sulfonamide] in red blood cells, t = 48 h, ES","human red cells; 48 h, 3 mM sulfonamide in 5 mM Tris buffer pH 7.4, electronic spectroscopy",3.0 µM
same,membrane permeability at exposure times of 30-60 min,"human red cells; human RBCs, 30-60 min, pH 7.4",decreased membrane permeability
same,membrane permeability after 48 hours of exposure,"human red cells; human RBCs, 48 hours, pH 7.4",slightly more permeant
same,acidosis (pHe) of hypoxic HeLa cells,[3],reduced
same,binding to SiHa cells,[4],binds to hypoxic HeLa and SiHa cells
